Experimental findings from patent US8263610B2, “Substituted imidazolyl-5,6-dihydrobenzo[N]isoquinoline compounds” (ArQule, Inc., priority 2008, dated 2012) are described below.

Molecules are shown by their SMILES. Structures can show the parent of a compound that is named as a salt.

Molecule `O=S(=O)(c1ccccc1)N1CCc2c(cnc3[nH]ncc23)C1` gave a melting point of 270 to 271 °C.
The molecule `S=C(Nc1ccccc1)N1CCc2c(cnc3[nH]ncc23)C1` registered a melting point of 200 to 202 °C.
In the case of `COc1ccc(CN2CCc3c(cnc4c3cnn4Cc3ccc(OC)cc3)C2)cc1` it was 105 to 107 °C.
In the case of `O=C(Nc1ccccc1)NC1CCc2c(cnc3[nH]ncc23)C1` (stereo not drawn) it was greater than 216 °C; in that of `O=C(Nc1ccccc1)C1CCc2c(cnc3[nH]ncc23)C1` (stereo not drawn), greater than 300 °C; in that of `COc1ccc(Cn2ncc3c4c(cnc32)CNCC4)cc1`, 96 to 102 °C.
The value for `O=C(O)C(F)(F)F.c1nc2[nH]ncc2c2c1CNCC2` was 224 to 227 °C.
Turning to `Cl.c1ccc(-c2n[nH]c3ncc4c(c23)CCNC4)cc1`, the melting point is 265 °C (dec.).
The value for `O=C(C(NCCO)c1ccccc1)N1CCc2c(cnc3[nH]nc(Br)c23)C1.O=C(O)C(F)(F)F` (stereo not drawn) was greater than 115 °C; that for `Cl.O=C(C(c1ccccc1)N1CCNCC1)N1CCc2c(cnc3[nH]nc(Br)c23)C1` (stereo not drawn) was greater than 245 °C; that for `N[C@H](C(=O)N1CCc2c(cnc3[nH]ncc23)C1)c1ccccc1.O=C(O)C(F)(F)F` was greater than 100 °C.
In the case of `c1ccc(CNC2CCc3c(cnc4[nH]ncc34)C2)cc1` (stereo not drawn) (as salt: TFA) it was greater than 232 °C; in that of `Clc1ccccc1C1Cc2cnc3[nH]nc(-c4cnn(C5CCNCC5)c4)c3c2-c2ccccc21` (stereo not drawn) (as salt: TFA) [Example 19, 7-(2-chlorophenyl)-1-(1-piperidin-4-yl-1H-pyrazol-4-yl)-6,7-dihydro-3H-benzo[f]pyrazolo[3,4-c]isoquinoline], greater than 225 °C.
The value for `O=C(C(NCCc1c[nH]c2ccccc12)c1ccccc1)N1CCc2c(cnc3[nH]ncc23)C1` (stereo not drawn) (as salt: TFA) [Example 84, N-(2-(1H-indol-3-yl)ethyl)-2-(8,9-dihydro-3H-pyrazolo[3,4-c][2,7]naphthyridin-7(6H)-yl)-2-oxo-1-phenylethanaminium 2,2,2-trifluoroacetate] was greater than 164 °C.
`CN(C)CCNC(=O)c1cccc(NC(=O)N2CCc3c(cnc4[nH]ncc34)C2)c1` (as salt: TFA) [Example 95, N-(3-(2-(dimethylamino)ethylcarbamoyl)phenyl)-8,9-dihydro-3H-pyrazolo[3,4-c][2,7]naphthyridine-7(6H)-carboxamide] displayed a melting point of 184 to 196 °C.
In the case of `O=C(NCc1ccccc1)c1cccc(NC(=O)N2CCc3c(cnc4[nH]ncc34)C2)c1` (as salt: TFA) [Example 96, N-[3-(benzylcarbamoyl)phenyl]-3,6,8,9-tetrahydro-7H-pyrazolo[3,4-c][2,7]naphthyridine-7-carboxamide] it was greater than 135 °C; in that of `O=C(c1ccccc1)c1c[nH]c2ncnc(N3CCc4c(cnc5[nH]ncc45)C3)c12` (as salt: TFA) [Example 435, (4-(8,9-dihydro-3H-pyrazolo[3,4-c][2,7]naphthyridin-7(6H)-yl)-7H-pyrrolo[2,3-d]pyrimidin-5-yl)(phenyl)methanone], 300 to 302 °C; in that of `O=C(Nc1ccccc1)N1CCc2c(cnc3[nH]nc(C4=CCNCC4)c23)C1` (as salt: chloride), 230 to 231 °C.
The value for `NC(=O)c1cccc(-c2n[nH]c3ncc4c(c23)CCNC4)c1` (as salt: trifluoroacetate) was 240 °C (dec.).
In the case of `CC(=O)Nc1cccc(-c2n[nH]c3ncc4c(c23)CCNC4)c1` (as salt: trifluoroacetate) [Example 456, 1-(3-acetamidophenyl)-6,7,8,9-tetrahydro-3H-pyrazolo[3,4-c][2,7]naphthyridin-7-ium 2,2,2-trifluoroacetate] it was 245 °C (dec.); in that of `COc1ccc(Cn2ncc3c4c(cnc32)CC(NC(=O)c2ccccc2)CC4)cc1` (stereo not drawn) [Compound 5, N-[3-(4-methoxybenzyl)-6,7,8,9-tetrahydro-3H-pyrazolo[3,4-c]isoquinolin-7-yl]benzamide], greater than 65 °C.
In turn, `COc1ccc(Cn2ncc3c4c(cnc32)CN(S(=O)(=O)c2ccccc2)CC4)cc1` [Compound 6, 3-(4-methoxybenzyl)-7-(phenylsulfonyl)-6,7,8,9-tetrahydro-3H-pyrazolo[3,4-c][2,7]naphthyridine] returned a melting point of 136 to 138 °C.
The value for `Clc1ccc(C2Cc3cnc4[nH]ncc4c3-c3ccccc32)cc1Cl` (stereo not drawn) [Example 1, 7-(3,4-dichlorophenyl)-6,7-dihydro-3H-benzo[f]pyrazolo[3,4-c]isoquinoline] was 168 to 170 °C.
`c1ccc(C2Cc3cnc4[nH]ncc4c3-c3ccccc32)cc1` (stereo not drawn) [Example 2, 7-phenyl-6,7-dihydro-3H-benzo[f]pyrazolo[3,4-c]isoquinoline] registered a melting point of 143 to 145 °C.
Turning to `Fc1ccc(C2Cc3cnc4[nH]ncc4c3-c3ccccc32)cc1F` (stereo not drawn) [Example 3, 7-(3,4-difluorophenyl)-6,7-dihydro-3H-benzo[f]pyrazolo[3,4-c]isoquinoline], the melting point is 195 to 196 °C.
With `Clc1ccccc1C1Cc2cnc3[nH]ncc3c2-c2ccccc21` (stereo not drawn) [Example 5, 7-(2-dichlorophenyl)-6,7-dihydro-3H-benzo[f]pyrazolo[3,4-c]isoquinoline], the melting point lay within 88 to 91 °C.
In the case of `Fc1ccc(C2Cc3cnc4[nH]ncc4c3-c3ccccc32)cc1` (stereo not drawn) [Example 6, 7-(4-fluorophenyl)-6,7-dihydro-3H-benzo[f]pyrazolo[3,4-c]isoquinoline] it was 167 to 169 °C.
`Cc1cc(C)c2c(c1)-c1c(cnc3[nH]ncc13)CC2` [Example 7, 8,10-dimethyl-6,7-dihydro-3H-benzo[f]pyrazolo[3,4-c]isoquinoline] registered a melting point of 152 to 155 °C.
The value for `COc1cccc2c1CCc1cnc3[nH]ncc3c1-2` [Example 8, 8-methoxy-6,7-dihydro-3H-benzo[f]pyrazolo[3,4-c]isoquinoline] was 85 to 89 °C.
The value for `COc1ccc2c(c1)-c1c(cnc3[nH]ncc13)CC2` [Example 9, 10-methoxy-6,7-dihydro-3H-benzo[f]pyrazolo[3,4-c]isoquinoline] was 95 to 97 °C.
In the case of `c1cnc2c(c1)CCc1cnc3[nH]ncc3c1-2` [Example 10, 6,9-dihydro-5H-pyrazolo[3,4-k][1,8]phenanthroline] it was 263 to 265 °C; in that of `O=[N+]([O-])c1ccc2c(c1)-c1c(cnc3[nH]ncc13)CC2` [Example 14, 10-nitro-6,7-dihydro-3H-benzo[f]pyrazolo[3,4-c]isoquino line], 214 to 217 °C.
`O=c1ccc2c([nH]1)CCc1cnc3[nH]ncc3c1-2` [Example 15, 6,7-dihydro-3H-pyrazolo[4,3-a][3,7]phenanthrolin-9(8H)-one] gave a melting point of 290 to 296 °C.
The value for `Brc1n[nH]c2ncc3c(c12)-c1ccccc1C(c1ccccc1)C3` (stereo not drawn) [Example 16, 1-bromo-7-phenyl-6,7-dihydro-3H-benzo[f]pyrazolo[3,4-c]isoquinoline] was 176 to 178 °C; that for `CC(C)(C)OC(=O)N1CCC(n2cc(-c3n[nH]c4ncc5c(c34)-c3ccccc3C(c3ccccc3Cl)C5)cn2)CC1` (stereo not drawn) [Example 18, tert-butyl 4-(4-(7-(2-chlorophenyl)-6,7-dihydro-3H-benzo[f]pyrazolo[3,4-c]isoquinolin-1-yl)-1H-pyrazol-1-yl)piperidine-1-carboxylate] was 139 to 141 °C.
The value for `c1ccc2c(c1)NCCc1cnc3[nH]ncc3c1-2` [Example 29, 3,6,7,8-tetrahydropyrazolo[4′,3′:5,6]pyrido[3,4-d][1]benzazepine] was 215 to 217 °C.
The value for `CC(C)(C)OC(=O)N1CCc2c(cnc3[nH]ncc23)C1` [Example 76, tert-butyl 8,9-dihydro-3H-pyrazolo[3,4-c][2,7]naphthyridine-7(6H)-carboxylate] was greater than 70 °C; that for `CC(C)(C)OC(=O)N1CCc2c(cnc3[nH]nc(Br)c23)C1` [Example 77, tert-butyl 1-bromo-8,9-dihydro-3H-pyrazolo[3,4-c][2,7]naphthyridine-7(6H)-carboxylate] was greater than 65 °C.
Take `CC(C)(C)OC(=O)N1CCN(C(C(=O)N2CCc3c(cnc4[nH]nc(Br)c34)C2)c2ccccc2)CC1` (stereo not drawn) [Example 91, tert-butyl 4-(2-(1-bromo-8,9-dihydro-3H-pyrazolo[3,4-c][2,7]naphthyridin-7(6H)-yl)-2-oxo-1-phenylethyl)piperazine-1-carboxylate]: the melting point fell in the range of 159 to 161 °C.
In the case of `O=C(O)c1cccc(NC(=O)N2CCc3c(cnc4[nH]ncc34)C2)c1` [Example 93b, 3-(6,7,8,9-tetrahydro-3H-pyrazolo[3,4-c][2,7]naphthyridine-7-carboxamido)benzoic acid] it was 237 to 241 °C.
The value for `O=C(Nc1cccc(C(=O)N2CCC(n3c(=O)[nH]c4ccccc43)CC2)c1)N1CCc2c(cnc3[nH]ncc23)C1` [Example 94, N-(3-(4-(2-oxo-2,3-dihydro-1H-benzo[d]imidazol-1-yl)piperidine-1-carbonyl)phenyl)-8,9-dihydro-3H-pyrazolo[3,4-c][2,7]naphthyridine-7(6H)-carboxamide] was greater than 215 °C; that for `COc1ccc(Cn2ncc3c4c(cnc32)CN(C(=O)Nc2cccc(C(=O)O)c2)CC4)cc1` [Example 153, 3-(3-(4-methoxybenzyl)-6,7,8,9-tetrahydro-3H-pyrazolo[3,4-c][2,7]naphthyridine-7-carboxamido)benzoic acid] was greater than 136 °C.
As for `O=S(=O)(NC1CCc2c(cnc3[nH]ncc23)C1)c1ccccc1` (stereo not drawn) [Example 158, N-(6,7,8,9-tetrahydro-3H-pyrazolo[3,4-c]isoquinolin-7-yl)benzenesulfonamide], the melting point was in the range of 228 to 229 °C.
In turn, `O=C(Nc1ccccc1)N1CCc2c(cnc3[nH]ncc23)C1` [Example 318, N-phenyl-8,9-dihydro-3H-pyrazolo[3,4-c][2,7]naphthyridine-7(6H)-carboxamide] displayed a melting point of 184 to 186 °C.
In the case of `O=C(Nc1ccccc1)N1CCc2cnc3[nH]ncc3c2-c2ccccc21` [Example 319, N-phenyl-6,7-dihydropyrazolo[4′,3′:5,6]pyrido[3,4-d][1]benzazepine-8(3H)-carboxamide] it was greater than 140 °C.
